Source: EP4768485A1 (Guangzhou Baiyunshan Pharmaceutical Holdings Co., Ltd. …, priority 2023, dated 2025)
Converted amounts (≈) assume the structure as drawn.

Legend:
EcFabI = EcFabI (Escherichia coli, UniProt P0AEK4); experiment: FabI enzymatic activity by NADH/NADPH oxidation (fluorescence), EcFabI; format: biochemical; conditions: 9 nmol/L EcFabI; trans-dodecenoyl-CoA and NADH; pH 6.5
Experimental: (§4) In this test example, the enzymatic activity was evaluated by monitoring the oxidation of cofactor NADH/NADPH using a microplate reader.
(§5) The compound was dissolved in DMSO and added to a 384-well plate using ECHO665. Serial 3-fold or 4-fold dilutions were prepared to generate 10 dose points with two replicates per concentration, ensuring a final DMSO concentration 1% in each reaction well. Then, a FabI protein solution was added, and the protein was prepared in a buffer containing 100 mmol/L PBS, 0.05% Tween-20, and 150 mmol/L NaCl (pH 6.5), so that the final concentrations of SaFabI and EcFabI proteins were 15 nmol/L and 9 nmol/L, respectively. The prepared 5 µL of 15 nmol/L SaFabI and 9 nmol/L EcFabI were added to a 384-well assay plate, and centrifuged at 1000 rpm for 1 minute. Then, the plate was pre-incubated in a temperature-controlled shaker at 30 °C for 20 minutes. Moreover, substrates trans-octenoyl-CoA, NADPH, trans-dodecenoyl-CoA, and NADH were diluted in a buffer containing 100 mmol/L PBS, 0.05% Tween-20, and 15 0 mmol/L NaCl (pH 6.5) respectively, and their concentrations were adjusted to 300 µmol/L, 300 µmol/L, 600 µmol/L, and 150 µmol/L, respectively. For SaFabI, 5 µL of 300 µmol/L trans-octenoyl-CoA and 5 µL of 300 µmol/L NADPH were added to initiate the reaction. Immediately after initiation, the plate was placed into the microplate reader, and fluorescence signals (Ex 340 nm/Em 460 nm) were recorded every 0.5 minutes for at least 10 minutes. Similarly, 5 µL of 600 µmol/L trans-dodecenoyl-CoA and 5 µL of 150 µmol/L NADH were added to initiate reaction of EcFabI. Immediately after initiation, the plate was immediately placed into the microplate reader, and fluorescence signals (Ex 340 nm/Em 460 nm) were recorded every 0.5 minutes for at least 10 minutes. The reaction rate (fluorescence signal per minute) of each well was calculated from the fluorescence values. The inhibitory effect of the compound on the protein was then calculated based on the reaction rate, and the IC50 value for inhibition of enzyme activity by the compound was determined by fitting the data using GraphPad Prism 6 with log (inhibitor) vs. response variable slope model. The fitting equation is: Y=Bottom + (Top-Bottom)/(1+10^((LogIC50-X)*HillSlope)), wherein Y represents the known percentage of residual enzyme activity, and X represents the known Log concentration of the compound.

MRSA NRS 384 = experiment: MIC, agar plate two-fold dilution; format: cell-based, Staphylococcus aureus; conditions: MHA, 37°C, 16-20 hours; for MIC: Staphylococcus aureus, MRSA|NRS384, read-out: Minimum Inhibitory Concentration MIC, MRSA NRS 384; for Minimum Inhibitory Concentration MIC: MRSA NRS 384
Experimental: (§1) In this test example, the minimum inhibitory concentration (MIC) of the compound was determined.
(§2) The test drug concentration was set to be within a range of 0.008 µg/mL to 128 µg/mL in a two-fold serial dilution using an agar plate two-fold dilution method. The sample was dissolved in DMSO to prepare a 2 mL solution with a concentration of 1.92 mg/mL. The control group was prepared in sterile distilled water to obtain a concentration of 1.92 mg/mL. 1 mL of the prepared drug solution was added to a sterile culture dish, followed by addition of 14 mL of MHA culture medium at approximately 60°C. After thorough mixing, 1 mL of sterilized distilled water was added for two-fold dilution, resulting in a final drug concentration of 64 µg/mL, 32 µg/mL, 16 µg/mL, 8 µg/mL, 4 µg/mL, 2 µg/mL, 1 µg/mL, 0.5 µg/mL, 0.25 µg/mL, 0.125 µg/mL, 0.06 µg/mL, 0.03 µg/mL, 0.015 µg/mL, and 0.008 µg/mL (wherein the final concentrations of samples 2, 4, and 9 were diluted downward starting from 128 µg/mL), and set aside for later use. The prepared bacterial suspension was inoculated onto drug-containing MHA culture medium with a multi-point inoculator, with an inoculation volume of approximately 10^4 CFU per point. A sterile control group (1 mL DMSO + 14 mL MHA culture medium and 1 mL sterile distilled water + 14 mL MHA culture medium) was set up.

MSSA ATCC 29213 = experiment: MIC, agar plate two-fold dilution; format: cell-based, Staphylococcus aureus; conditions: MHA, 37°C, 16-20 hours; for MIC: Staphylococcus aureus, ATCC29213|MSSA, read-out: Minimum Inhibitory Concentration MIC, MSSA ATCC 29213; for Minimum Inhibitory Concentration MIC: MSSA ATCC 29213
Experimental: as §1, §2

VRSA VRS 1 = experiment: MIC, agar plate two-fold dilution; format: cell-based, Staphylococcus aureus; conditions: MHA, 37°C, 16-20 hours; for Minimum Inhibitory Concentration MIC: VRSA VRS 1
Experimental: as §1, §2

[1] = test system: Acinetobacter baumannii ARLG 1852; experiment: MIC, agar plate two-fold dilution; format: cell-based; conditions: for MIC: Acinetobacter baumannii, ARLG1852, read-out: Minimum Inhibitory Concentration MIC; for Minimum Inhibitory Concentration MIC: Acinetobacter baumannii ARLG 1852, MHA, 37°C, 16-20 hours
Experimental: as §1, §2

[2] = test system: Escherichia coli. ATCC 25923; experiment: MIC, agar plate two-fold dilution; format: cell-based; conditions: MHA, 37°C, 16-20 hours; for MIC: Escherichia coli, ATCC25923, read-out: Minimum Inhibitory Concentration MIC, Escherichia coli. ATCC 25923; for Minimum Inhibitory Concentration MIC: Escherichia coli. ATCC 25923
Experimental: as §1, §2

[3] = test system: Klebsiella pneumoniae ATCC BAA 2472; experiment: MIC, agar plate two-fold dilution; format: cell-based; conditions: for MIC: Klebsiella pneumoniae, BAA2472, read-out: Minimum Inhibitory Concentration MIC; for Minimum Inhibitory Concentration MIC: Klebsiella pneumoniae ATCC BAA 2472, MHA, 37°C, 16-20 hours
Experimental: as §1, §2

SaFabI = SaFabI (Staphylococcus aureus, UniProt Q6GI75); experiment: FabI enzymatic activity by NADH/NADPH oxidation (fluorescence), SaFabI; conditions: SaFabI IC50, 15 nmol/L SaFabI; trans-octenoyl-CoA and NADPH; pH 6.5
Chain of SaFabI (Q6GI75 whole entry): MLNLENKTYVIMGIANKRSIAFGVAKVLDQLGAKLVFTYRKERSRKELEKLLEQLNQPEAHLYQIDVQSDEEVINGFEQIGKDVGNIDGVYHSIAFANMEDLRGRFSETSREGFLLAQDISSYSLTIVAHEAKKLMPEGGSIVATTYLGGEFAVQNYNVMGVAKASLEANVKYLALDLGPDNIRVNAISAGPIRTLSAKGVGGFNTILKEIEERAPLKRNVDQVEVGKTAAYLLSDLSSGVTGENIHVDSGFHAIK
Experimental: as §4, §5

[4] = test system: methicillin-resistant S. aureus (NRS384); experiment: Systemic infection model in mice, in vivo efficacy; set-up: species or system Balb/c mice; conditions: single-dose oral administration, 0.3, 1.0, 3.0 mg/Kg; vs linezolid 3 mg/Kg and Debio-1450
Experimental: In this test experiment, the in vivo efficacy of the compound in mice was evaluated using a systemic infection model.
Ninety healthy adult male Balb/c mice (purchased from Beijing Vital River Laboratory Animal Technology Co., Ltd. , China) were selected, and divided into 10 groups, including one negative control group (9 mice, inoculated with bacteria and given vehicle), one positive control group (9 mice, vancomycin), one linezolid test group (9 mice), three test groups of high, medium, and low doses (3 ×9 mice) for compound 1a, three test groups of high, medium, and low doses (3 ×9 mice) for Debio-1450, and one test group for Debio-1452 (9 mice). All mice were acclimatized for 3-4 days before testing. The strain inoculated in this test example was methicillin-resistant S. aureus (NRS384), which was administered via tail vein injection at a dose of 1.0 × 10^8 CFU/mouse. The compound was administered 0.5 h post inoculation with the strain. The compound 1a and Debio-1452 were formulated in a vehicle containing 5% DMSO, 30% PEG400, and 65% H2O, while Debio-1450 was formulated in an isotonic glucose solution (freshly prepared) as the vehicle and was administered orally as a single dose. The specific dosing regimen is shown in Table 5: Table 5 Dosing Regimen for Systemic Infection Efficacy Model

[5] = test system: Acinetobacter baumannii ATCC17979; experiment: MIC, antibacterial spectrum; format: cell-based
Experimental: as §2
(§3) Referring to the minimum inhibitory concentration test method mentioned above, the antibacterial spectrum of compound 1b was tested. […] Table 3 Antibacterial Spectrum Testing of Compound 1b MIC (µg/mL)

[6] = test system: Enterobacter cloacae ATCC13047; experiment: MIC, antibacterial spectrum; format: cell-based
Experimental: as §2, §3

[7] = test system: Enterococcus faecalis ATCC51299; experiment: MIC, antibacterial spectrum; format: cell-based
Experimental: as §2, §3

[8] = test system: Haemophilus influenzae ATCC29213; experiment: MIC, antibacterial spectrum; format: cell-based
Experimental: as §2, §3

[9] = test system: Klebsiella pneumoniae ATCC2055; experiment: MIC, antibacterial spectrum; format: cell-based
Experimental: as §2, §3

[10] = test system: Moraxella catarrhalis ATCC43617; experiment: MIC, antibacterial spectrum; format: cell-based
Experimental: as §2, §3

[11] = test system: Neisseria gonorrhoeae ATCC49226; experiment: MIC, antibacterial spectrum; format: cell-based
Experimental: as §2, §3

[12] = test system: Pseudomonas aeruginosa ATCC12055; experiment: MIC, antibacterial spectrum; format: cell-based
Experimental: as §2, §3

[13] = test system: Salmonella Typhi CMCC12055; experiment: MIC, antibacterial spectrum; format: cell-based; conditions: Salmonella enterica
Experimental: as §2, §3

[14] = test system: Staphylococcus epidermidis ATCC35983; experiment: MIC, antibacterial spectrum; format: cell-based
Experimental: as §2, §3

[15] = test system: Staphylococcus haemolyticus CICC23976; experiment: MIC, antibacterial spectrum; format: cell-based
Experimental: as §2, §3

[16] = test system: Staphylococcus hominis ATCC27844; experiment: MIC, antibacterial spectrum; format: cell-based
Experimental: as §2, §3

[17] = Pharmacokinetic study in rats; format: in vivo, Sprague-Dawley (SD) rats; conditions: oral gavage
Experimental: In this test experiment, a pharmacokinetic study of the compound in rats was conducted.
Twelve healthy adult female Sprague-Dawley (SD) rats (purchased from Beijing Vital River Laboratory Animal Technology Co., Ltd., China) with an average body weight of about 180-220 g were selected, and divided into four groups (n=3 per group). Two groups were administered via tail vein injection, while the other two groups were administered via oral gavage. Compound 1b was dissolved in a vehicle containing 5% DMSO, 30% PEG400, and 65% H2O, and Debio-1450 was dissolved in physiological saline, both of which were formed into a stable clear solution for later use. Animals were fasted for 12 hours before administration and resumed normal feeding 2 hours post administration. Then, blood samples were collected through the jugular vein at the following time points: 0.083 h, 0.25 h, 0.5 h, 1 h, 2 h, 4 h, 8 h, 24 h (tail vein injection) and 0.25 h, 0.5 h, 1 h, 2 h, 4 h, 8 h, 24 h (oral gavage administration), respectively, with a blood collection volume of about 200-400 µL. Whole blood collected at each time point was immediately transferred into an anticoagulant tube containing K2EDTA, then stored on ice in an insulated container. All samples were centrifuged within 15 minutes at 4600 r/min and 4°C for 5 minutes to separate plasma. The concentration of the compound in the plasma of each rat was determined using LC-MS/MS method, and the pharmacokinetic parameter was calculated from the drug concentration-time profile. Table 4 Oral Pharmacokinetic Parameters of Compound 1b/Debio-1450 In Rats

[18] = female, Sprague-Dawley, rat, in vivo, 15 mg/Kg, plasma

Chain of EcFabI (P0AEK4 whole entry): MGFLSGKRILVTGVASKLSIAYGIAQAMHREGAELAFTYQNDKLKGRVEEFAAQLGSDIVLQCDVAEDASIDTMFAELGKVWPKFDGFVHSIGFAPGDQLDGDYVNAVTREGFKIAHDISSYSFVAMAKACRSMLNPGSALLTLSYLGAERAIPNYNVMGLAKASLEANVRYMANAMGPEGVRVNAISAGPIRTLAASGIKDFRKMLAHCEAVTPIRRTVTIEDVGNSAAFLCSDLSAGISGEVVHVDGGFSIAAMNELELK

SMILES	IC50 (EcFabI) [nM]	MIC (MRSA NRS 384) [µg/mL]	MIC (MSSA ATCC 29213) [µg/mL]	MIC [1] [µg/mL]	MIC [2] [µg/mL]	MIC [3] [µg/mL]	IC50 (SaFabI) [nM]	Minimum Inhibitory Concentration MIC (MRSA NRS 384) [µg/mL]	Minimum Inhibitory Concentration MIC (MSSA ATCC 29213) [µg/mL]	Minimum Inhibitory Concentration MIC (VRSA VRS 1) [µg/mL]	Minimum Inhibitory Concentration MIC [1] [µg/mL]	Minimum Inhibitory Concentration MIC [2] [µg/mL]	Minimum Inhibitory Concentration MIC [3] [µg/mL]	further results
Cc1c(CN(C)C(=O)/C=C/c2cnc3c(c2)C2CC2(N)C(=O)N3)oc2c(C3CC3)cccc12 (single isomer, unassigned) [Compound 2a]	6	< 0.008	< 0.008	> 32	8 (≈ 18.1 µM)	32 (≈ 72.3 µM)	10							MIC (VRSA VRS 1; Staphylococcus aureus, VRSA, read-out: Minimum Inhibitory Concentration MIC, VRSA VRS 1): 0.06 µg/mL (≈ 0.136 µM)
Cc1c(CN(C)C(=O)/C=C/c2cnc3c(c2)C2CC2(N)C(=O)N3)oc2c(C3CC3)cccc12 (single isomer, unassigned) [Compound 2b]	13						12	<0.008	0.016	0.06	>32	>16	32	
Cc1c(CN(C)C(=O)/C=C/c2cnc3c(c2)C2CC2(N)C(=O)N3)oc2c(C)cccc12 (stereo not shown) [Compound 1a]	4	< 0.008	< 0.008	> 32	4 (≈ 9.6 µM)	16 (≈ 38.4 µM)	5			0.25				efficacy compared with the reference compounds [4]: markedly superior efficacy to linezolid and better efficacy than Debio-1450
Cc1c(CN(C)C(=O)/C=C/c2cnc3c(c2)C2CC2(N)C(=O)N3)oc2c(C)cccc12 (stereo not shown) [Compound 1b]	5						12	<0.008	<0.008	0.12	>32	4	16	MIC [5]: 32 µg/mL (≈ 76.8 µM); MIC [6]: 8 µg/mL (≈ 19.2 µM); MIC [7]: > 64 µg/mL; antibacterial activity (in words) [8]: good antibacterial activity; MIC ([8]; ATCC29213): 0.25 µg/mL (≈ 0.6 µM); MIC [9]: 8 µg/mL (≈ 19.2 µM); antibacterial activity (in words) ([10]; Moraxella catarrhalis): excellent antibacterial activity; MIC ([10]; Moraxella catarrhalis ATCC43617): < 0.06 µg/mL; MIC [11]: 8 µg/mL (≈ 19.2 µM); MIC [12]: > 64 µg/mL; MIC [13]: 4 µg/mL (≈ 9.6 µM); antibacterial activity (in words) ([14]; Staphylococcus epidermidis): excellent antibacterial activity; MIC ([14]; Staphylococcus epidermidis ATCC35983): < 0.06 µg/mL; MIC [15]: < 0.06 µg/mL; antibacterial activity (in words) ([16]; Staphylococcus hominis): excellent antibacterial activity; MIC ([16]; Staphylococcus hominis ATCC27844): < 0.06 µg/mL; Tmax [17, 18]: 1.5 h; half-life [17, 18]: 2.57 h; F ([17]; 15 mg/Kg vs tail vein injection): 110%
